The test concerns P388. Nature of the test: Cytotoxicity, 50% inhibitory concentration against P388 Mouse T cell leukemia cell line by MTT assay. Format: functional, cell-based.
`COc1ccc(/C=C2\C#CCCCCC#CC2OC(C)=O)cc1` (stereo not given) registered an IC50 of 15 µM.

`COCC(=O)OC1C#CCCCCC#C/C1=C\c1ccc2ccccc2c1` (stereo not given) returned an IC50 of 28 µM.

As to `COc1ccc(C(O)/C2=C/C#CCCCCC#C2)cc1` (stereo not given), 13 µM corresponded to half-maximal inhibition (IC50).

As to `COc1ccc(/C=C2\C#CCCCCC#CC2O)cc1` (stereo not given), the IC50 worked out at 5.8 µM.

Regarding `COCC(=O)OC1C#CCCCCC#C/C1=C\c1ccccc1` (stereo not given), the IC50 is 23 µM.

As to `COCC(=O)OC(/C1=C/C#CCCCCC#C1)c1cccc2ccccc12` (stereo not given), 3.8 µM corresponded to half-maximal inhibition (IC50).

Regarding `CC(=O)OC1C#CCCCCC#C/C1=C\c1ccccc1` (stereo not given), the IC50 was 48 µM. Against the preceding compound, the IC50 is about 13-fold higher.

Regarding `OC1C#CCCCCC#C/C1=C\c1ccc2ccccc2c1` (stereo not given), the IC50 came to 3.6 µM.

As for `CC(=O)OC1C#CCCCCC#C/C1=C\c1cccc2ccccc12` (stereo not given), the IC50 amounted to 2.4 µM.

For `COCC(=O)OC1C#CCCCCC#C/C1=C\c1cccc2ccccc12` (stereo not given), the IC50 is 12 µM. Against the preceding compound, the IC50 is about 5-fold higher.

Consider `COCC(=O)OC(/C1=C/C#CCCCCC#C1)c1ccccc1` (stereo not given), for which the IC50 worked out at 7.7 µM.

Compound `OC1C#CCCCCC#C/C1=C\c1cccc2ccccc12` (stereo not given) gave an IC50 of 41 µM.

In the case of `COCC(=O)OC(/C1=C/C#CCCCCC#C1)c1ccc2ccccc2c1` (stereo not given), the IC50 worked out at 9.5 µM.

For the compound `OC1C#CCCCCC#C/C1=C\c1ccccc1` (stereo not given), half-maximal inhibition (IC50) required 25 µM.

Take `CC(=O)OC1C#CCCCCC#C/C1=C\c1ccc2ccccc2c1` (stereo not given): it took 2.8 µM to reach half-maximal inhibition (IC50).

One may read the IC50 as the concentration at which inhibition is half-maximal.

(Values after ChEMBL document CHEMBL1135715, “DNA cleavage potency, cytotoxicity, and mechanism of action of a novel class of enediyne prodrugs” (J Med Chem, 2002).)
